Assay results from patent publication US10463670B2, “Use of non-peptide NK1 antagonists in a predetermined dose for the treatment of cancer” (SERVICIO ANDALUZ DE SALUD, priority 2013, dated 2019).
“Also recorded” adds a separate entry of the source.

Tests used:
[1] = tested on: human lymphoma; reference BC-1; test: Lymphoma BC-1 tumours implanted s.c. in nude mice, Aprepitant alone; type: in vivo
Protocol: (§1) Immunocompromised female mice, 5-6 weeks of age were used, nu/nu Balb/c nude mice, provided by Harlan Iberica Barcelona (Spain). They were kept at 24° C. and in sterile conditions with food and water “ad libitum”. They were injected with 2×10^7 tumour cells, corresponding to cancer (human lung cancer, reference HCC-44 supplied by DSMZ) in 200 μl of PBS subcutaneous route. The tumour size was measured and the mice were evaluated for their state of health and weight daily. The mice were randomized in nine groups when the tumours reached a volume of 75 mm^3. One of the groups was treated with 200 μl of placebo (control group) and the eight remaining groups with doses of 10 (group 1), 20 (group 2), 30 (group 3), 40 (group 4), 50 (group 5), 60 (group 6), 70 (group 7) and 80 (group 8) mg per kilogram of weight and day of the NK1 receptor antagonist Aprepitant. 3 animals were treated per group, during 28 days. All the mice were sacrificed at the end of the experiment.
(§2) Immunocompromised female mice, 5-6 weeks of age were used, in the same conditions as explained in example 1. They were injected with 2×10^7 tumour cells, corresponding to a haematological cell line tumour (human lymphoma; reference BC-1; supplied by DSMZ) in 200 μl of PBS by subcutaneous route. The tumour size was measured and the mice were evaluated for their state of health and weight daily. The mice were randomized in nine groups when the tumours reached a volume of 75 mm^3. One of the groups was treated with 200 μl of placebo (control group) and the eight remaining groups with doses of 10 (group 1), 20 (group 2), 30 (group 3), 40 (group 4), 50 (group 5), 60 (group 6), 70 (group 7) and 80 (group 8) mg per kilogram of weight and day of the NK1 receptor antagonist Aprepitant. 3 animals were treated per group, during 28 days. All the mice were sacrificed at the end of the experiment.

[2] = tested on: Human fibrosarcoma HT-1080; test: MTS cell proliferation, nanomolar antagonist, HT-1080; type: cell-based; conditions: Aprepitant 1, 5 and 7 nM, vs cells grown in the absence of antagonist, time dependant
Protocol: (§3) Cell cultures of various commercial tumour cell lines stated in table 13 were used. [table] […] The number of cells was quantified using a Coulter counter. […] The culture plates were grown in the presence of increasing concentrations of non-peptide NK1 receptor antagonists. To obtain the staining in the proliferation assays, 20 μl of MTS were added to each one of the wells of the cell culture plates 90 minutes before reading the samples in a multiscan spectrophotometer (TECAN Spectra classic, Barcelona, Spain) at 492 nm (assay wavelength) and 690 nm (reference wavelength). The different doses were tested in duplicate and each experiment was performed in triplicate. The antagonist Aprepitant was used at the following concentrations: 1 nanomolar -nM-, 5 nanomolar -nM- and 7 nanomolar -nM-. […] As proliferation control, the cells were grown in the absence of said antagonist. This is expressed in FIGS. 1 to 10.

[3] = tested on: brain tumours; conditions: Aprepitant 3 mg per kilogram of weight and day; mice; Lewis et al. 2013; cited from earlier work
[4] = tested on: Human lung cancer A-427; test: MTS cell proliferation, nanomolar antagonist, A-427; type: cell-based; conditions: Aprepitant 1, 5 and 7 nM, vs cells grown in the absence of antagonist, time dependant
Protocol: as §3

[5] = tested on: human melanoma; reference MEL-HO; test: Melanoma MEL-HO tumours implanted s.c. in nude mice, Aprepitant alone; type: in vivo
Protocol: as §1
as §2, with “melanoma” for “haematological”, “melanoma;” for “lymphoma;”, “MEL-HO;” for “BC-1;”

[6] = tested on: Human breast cancer MT-3; test: MTS cell proliferation, nanomolar antagonist, MT-3; type: cell-based; conditions: Aprepitant 1, 5 and 7 nM, vs cells grown in the absence of antagonist, time dependant
Protocol: as §3

[7] = Aprepitant 10 mg/kg/day, 7 days
[8] = Aprepitant 10 mg/kg/day, 14 days
[9] = Aprepitant 10 mg/kg/day, 21 days
[10] = Aprepitant 10 mg/kg/day, 28 days
[11] = Aprepitant 20 mg/kg/day, 7 days
[12] = Aprepitant 20 mg/kg/day, 14 days
[13] = Aprepitant 20 mg/kg/day, 21 days
[14] = Aprepitant 20 mg/kg/day, 28 days
[15] = Aprepitant 30 mg/kg/day, 7 days
[16] = Aprepitant 30 mg/kg/day, 14 days
[17] = Aprepitant 30 mg/kg/day, 21 days
[18] = Aprepitant 30 mg/kg/day, 28 days
[19] = Aprepitant 40 mg/kg/day, 7 days
[20] = Aprepitant 40 mg/kg/day, 14 days
[21] = Aprepitant 40 mg/kg/day, 21 days
[22] = Aprepitant 40 mg/kg/day, 28 days
[23] = Aprepitant 50 mg/kg/day, 7 days
[24] = Aprepitant 50 mg/kg/day, 14 days
[25] = Aprepitant 50 mg/kg/day, 21 days
[26] = Aprepitant 50 mg/kg/day, 28 days
[27] = Aprepitant 60 mg/kg/day, 7 days
[28] = Aprepitant 60 mg/kg/day, 14 days
[29] = Aprepitant 60 mg/kg/day, 21 days
[30] = Aprepitant 60 mg/kg/day, 28 days
[31] = Aprepitant 70 mg/kg/day, 7 days
[32] = Aprepitant 70 mg/kg/day, 14 days
[33] = Aprepitant 70 mg/kg/day, 21 days
[34] = Aprepitant 70 mg/kg/day, 28 days
[35] = Aprepitant 80 mg/kg/day, 7 days
[36] = Aprepitant 80 mg/kg/day, 14 days
[37] = Aprepitant 80 mg/kg/day, 21 days
[38] = Aprepitant 80 mg/kg/day, 28 days

SMILES: C[C@@H](O[C@H]1OCCN(Cc2n[nH]c(=O)[nH]2)[C@H]1c1ccc(F)cc1)c1cc(C(F)(F)F)cc(C(F)(F)F)c1 [Aprepitant]
- Tumour size (mean volume of the tumour) [1, 7]: 210 ± 3 cubic millimeters
- Tumour size (mean volume of the tumour) [1, 8]: 195 ± 6 cubic millimeters
- Tumour size (mean volume of the tumour) [1, 9]: 175 ± 7 cubic millimeters
- Tumour size (mean volume of the tumour) [1, 10]: 170 ± 6 cubic millimeters
- Tumour size (mean volume of the tumour) [1, 11]: 195 ± 6 cubic millimeters
- Tumour size (mean volume of the tumour) [1, 12]: 175 ± 7 cubic millimeters
- Tumour size (mean volume of the tumour) [1, 13]: 160 ± 6 cubic millimeters
- Tumour size (mean volume of the tumour) [1, 14]: 150 ± 7 cubic millimeters
- Tumour size (mean volume of the tumour) [1, 15]: 180 ± 7 cubic millimeters
- Tumour size (mean volume of the tumour) [1, 16]: 155 ± 4 cubic millimeters
- Tumour size (mean volume of the tumour) [1, 17]: 145 ± 8 cubic millimeters
- Tumour size (mean volume of the tumour) [1, 18]: 140 ± 4 cubic millimeters
- Tumour size (mean volume of the tumour) [1, 19]: 165 ± 8 cubic millimeters
- Tumour size (mean volume of the tumour) [1, 20]: 165 ± 6 cubic millimeters
- Tumour size (mean volume of the tumour) [1, 21]: 130 ± 5 cubic millimeters
- Tumour size (mean volume of the tumour) [1, 22]: 110 ± 6 cubic millimeters
- Tumour size (mean volume of the tumour) [1, 23]: 150 ± 5 cubic millimeters
- Tumour size (mean volume of the tumour) [1, 24]: 145 ± 7 cubic millimeters
- Tumour size (mean volume of the tumour) [1, 25]: 120 ± 6 cubic millimeters
- Tumour size (mean volume of the tumour) [1, 26]: 100 ± 7 cubic millimeters
- Tumour size (mean volume of the tumour) [1, 27]: 130 ± 6 cubic millimeters
- Tumour size (mean volume of the tumour) [1, 28]: 130 ± 8 cubic millimeters
- Tumour size (mean volume of the tumour) [1, 29]: 100 ± 7 cubic millimeters
- Tumour size (mean volume of the tumour) [1, 30]: 85 ± 4 cubic millimeters
- Tumour size (mean volume of the tumour) [1, 31]: 110 ± 4 cubic millimeters
- Tumour size (mean volume of the tumour) [1, 32]: 105 ± 4 cubic millimeters
- Tumour size (mean volume of the tumour) [1, 33]: 80 ± 5 cubic millimeters
- Tumour size (mean volume of the tumour) [1, 34]: 80 ± 7 cubic millimeters
- Tumour size (mean volume of the tumour) [1, 35]: 95 ± 6 cubic millimeters
- Tumour size (mean volume of the tumour) [1, 36]: 85 ± 6 cubic millimeters
- Tumour size (mean volume of the tumour) [1, 37]: 65 ± 3 cubic millimeters
- Tumour size (mean volume of the tumour) [1, 38]: 65 ± 9 cubic millimeters
- Proliferation of tumour cells (MTS) [2]: increase was observed of proliferation
- Reduction in brain tumour size [3]: does not cause a reduction in brain tumour sizes; also recorded: does not produce reduction in the size of brain tumours
- Proliferation of tumour cells (MTS) [4]: increase was observed of proliferation
- Tumour size (mean volume of the tumour) [5, 7]: 235 ± 3 cubic millimeters
- Tumour size (mean volume of the tumour) [5, 8]: 215 ± 4 cubic millimeters
- Tumour size (mean volume of the tumour) [5, 9]: 190 ± 4 cubic millimeters
- Tumour size (mean volume of the tumour) [5, 10]: 170 ± 6 cubic millimeters
- Tumour size (mean volume of the tumour) [5, 11]: 210 ± 6 cubic millimeters
- Tumour size (mean volume of the tumour) [5, 12]: 200 ± 5 cubic millimeters
- Tumour size (mean volume of the tumour) [5, 13]: 175 ± 5 cubic millimeters
- Tumour size (mean volume of the tumour) [5, 14]: 150 ± 7 cubic millimeters
- Tumour size (mean volume of the tumour) [5, 15]: 195 ± 7 cubic millimeters
- Tumour size (mean volume of the tumour) [5, 16]: 185 ± 6 cubic millimeters
- Tumour size (mean volume of the tumour) [5, 17]: 160 ± 6 cubic millimeters
- Tumour size (mean volume of the tumour) [5, 18]: 140 ± 4 cubic millimeters
- Tumour size (mean volume of the tumour) [5, 19]: 175 ± 8 cubic millimeters
- Tumour size (mean volume of the tumour) [5, 20]: 160 ± 8 cubic millimeters
- Tumour size (mean volume of the tumour) [5, 21]: 140 ± 4 cubic millimeters
- Tumour size (mean volume of the tumour) [5, 22]: 110 ± 6 cubic millimeters
- Tumour size (mean volume of the tumour) [5, 23]: 160 ± 5 cubic millimeters
- Tumour size (mean volume of the tumour) [5, 24]: 150 ± 4 cubic millimeters
- Tumour size (mean volume of the tumour) [5, 25]: 125 ± 5 cubic millimeters
- Tumour size (mean volume of the tumour) [5, 26]: 100 ± 7 cubic millimeters
- Tumour size (mean volume of the tumour) [5, 27]: 145 ± 6 cubic millimeters
- Tumour size (mean volume of the tumour) [5, 28]: 135 ± 5 cubic millimeters
- Tumour size (mean volume of the tumour) [5, 29]: 115 ± 6 cubic millimeters
- Tumour size (mean volume of the tumour) [5, 30]: 85 ± 4 cubic millimeters
- Tumour size (mean volume of the tumour) [5, 31]: 125 ± 4 cubic millimeters
- Tumour size (mean volume of the tumour) [5, 32]: 105 ± 6 cubic millimeters
- Tumour size (mean volume of the tumour) [5, 33]: 90 ± 4 cubic millimeters
- Tumour size (mean volume of the tumour) [5, 34]: 80 ± 7 cubic millimeters
- Tumour size (mean volume of the tumour) [5, 35]: 100 ± 6 cubic millimeters
- Tumour size (mean volume of the tumour) [5, 36]: 95 ± 7 cubic millimeters
- Tumour size (mean volume of the tumour) [5, 37]: 65 ± 7 cubic millimeters
- Tumour size (mean volume of the tumour) [5, 38]: 65 ± 9 cubic millimeters
- Proliferation of tumour cells (MTS) [6]: increase was observed of proliferation
